Assays:
[1] = Excretion study, recovery of total radioactivity after single oral [3H]-CYA; type: in vivo, Wistar rats
Procedure: For the excretion study, a group of six rats (3 male and 3 female) were housed individually in metabolism cages, which allowed separate collection of urine and feces, and then administered with a single dose of 10 mg/kg bw (corresponded to a feed inclusion of approximately 100 mg/kg dose) [^3H]-CYA by oral gavage. Dosing suspensions of [^3H]-CYA were prepared in 0.5% aqueous CMC at 2 mg/mL after [^3H]-CYA (2.08 Ci/mmol) was diluted with non-radiolabeled CYA to a specific activity of 4.52 × 10^4 dpm/µg. Urine and feces were collected from intact animals for 7 days at 0–12, 12–24, 24–48, 48–72, 72–96, 96–120, 120–144, and 144–168 h after the dose, and the total weight of the urine and feces was recorded after each collection. At the end of the study, the animals are anesthetized, and once it's confirmed that they have lost consciousness, they are euthanized by exsanguination. The samples were stored at −20°C until analysis. Contents of gastrointestinal tracts were pooled with feces of 144–168 h time point. Each metabolism cage was thoroughly rinsed with a mixture of methanol/water (1:1; V/V), and the rinse solvent was collected and weighed. Each cage rinse was stirred thoroughly, […] of subsamples were removed, and radioactivities were analyzed immediately. One animal per gender was administered with non-radiolabeled CYA at the same dose, and animals were sacrificed at 6 h post-dose. Urine, feces, and tissues were collected for the blank controls.
(§1) For radioactivity detection, the samples were combusted by PerkinElmer Oxidizer 307 (PerkinElmer Life and Analytical Sciences). ^3H2O was collected into 20 mL of scintillant (PerkinElmer Life and Analytical Sciences) with 10 mL of Monophase S, and sample radioassays were quantitated by PerkinElmer® TriCarb® 2900 (PerkinElmer Life and Analytical Sciences) with low-level quench-correction. Counting efficiency was above 65%.
(§2) Tissue samples for each sampling time from all animals were homogenized, aliquots of blood and urine were mixed thoroughly, and feces were homogenized in methanol/water (50:50; V/V). Samples of the blood (500 μL), urine (500 μL) feces (500 mg), bone, and all tissues (100–500 mg) were combusted in PerkinElmer Oxidizer 307 after being transferred into tared cones and pads (PerkinElmer Life and Analytical Sciences) and added an aliquot of Combustaid (200 μL; PerkinElmer Life and Analytical Sciences). Radioactivity in the combustion products was determined by collecting ^3H2O into distilled water followed by liquid scintillation counting. Combustion efficiency was determined daily, prior to the combustion of study samples, by using a diluted dose formulation or ^3H standard. The measured radioactivity content in the combusted samples was adjusted using the combustion efficiency values. Samples were analyzed for radioactivity for 5 min. Total residue concentrations were calculated from the specific activity and radioactivity per mass or volume and expressed as molar equivalents of CYA.

[2] = Tissue distribution and depletion after oral [3H]-CYA for seven consecutive days; type: in vivo, Wistar rats; conditions: rats; for Tissue distribution and depletion of CYA (means ± SD) / t1/2 (elimination half-life): oral 10 mg/kg·bw x 7 days; for Tissue distribution and depletion of CYA (means ± SD): n = 4
Procedure: For the tissue distribution study, 24 rats were divided into six groups, one group as a blank control and five groups as five time point groups. Each time point group consisted of 4 rats (2 male and 2 female) administered [^3H]-CYA orally by gavage at 10 mg/kg bw (corresponded to a feed inclusion of approximately 100 mg/kg dose) for seven consecutive days, respectively. Dosing suspensions of [^3H]-CYA (2.08 Ci/mmol) were prepared in 0.5% aqueous carboxymethyl cellulose (CMC) at 4 mg/mL after being diluted with non-radiolabeled CYA to a specific activity of 9,044 dpm/µg. Another group of 4 rats (2 male and 2 female) was fed separately from the radioactive administration group for the blank control under the same conditions, sacrificed at 0 day. One group of 2 male and 2 female rats was randomly selected to be slaughtered at each time point (0.25, 1, 3, 7, and 14 days) after withdrawal. The rats were dissected, and blood, muscle, heart, liver, lung, spleen, kidney, skin, stomach, large intestine, small intestine, brain, cecum, testicle (or ovary), bladder, and bone (thigh bone) were collected separately and stored at −20°C until analysis. The weight of each tissue was recorded. Gastrointestinal tracts were stripped of their contents.
as §1, §2

[3] = rats, single oral 10 mg/kg bw, 7 days

## [3H]c1ccc2c(c1)[n+]([O-])cc(/C=N/NC(=O)CC#N)[n+]2[O-] [[^3H]-CYA]
[1]; 0–12 h post-dose
  radioactivity excreted, % of total dose: 21.03%
[1]; 12–24 h post-dose
  radioactivity excreted, % of total dose: 70.25%
[1]; first 24 h after administration
  drug-related radioactivity excreted, % of administration amount: 91.28%
[1]; [3]
  radioactivity excreted in the feces: 60.25%
  radioactivity excreted in the urine: 34.81%
  radioactivity of the cage rinse: 0.78%
  radioactivity remaining in the carcass: 0.38%
[1]; rats, single oral 10 mg/kg bw, within 7 days (168 h), n = 6
  Overall recovery of total radioactivity: 96.22%
[2]; Bladder, 6 h after withdrawal
  Tissue distribution and depletion of CYA (means ± SD): 0.98863 ± 0.19738 mg/kg
[2]; Blood, 6 h after withdrawal
  Tissue distribution and depletion of CYA (means ± SD): 1.55298 ± 0.13322 mg/kg
[2]; Blood, 1 d after withdrawal
  Tissue distribution and depletion of CYA (means ± SD): 0.78575 ± 0.05613 mg/kg
[2]; Blood, 3 d after withdrawal
  Tissue distribution and depletion of CYA (means ± SD): 0.74887 ± 0.0257 mg/kg
[2]; Blood, 7 d after withdrawal
  Tissue distribution and depletion of CYA (means ± SD): 0.06989 ± 0.03612 mg/kg
[2]; Blood
  t1/2 (elimination half-life): 38.50 h
[2]; Bone, 6 h after withdrawal
  Tissue distribution and depletion of CYA (means ± SD): 0.49469 ± 0.05879 mg/kg
[2]; Bone, 1 d after withdrawal
  Tissue distribution and depletion of CYA (means ± SD): 0.28043 ± 0.05615 mg/kg
[2]; Brain, 6 h after withdrawal
  Tissue distribution and depletion of CYA (means ± SD): 0.62702 ± 0.06033 mg/kg
[2]; Brain, 1 d after withdrawal
  Tissue distribution and depletion of CYA (means ± SD): 0.45064 ± 0.04138 mg/kg
[2]; Caecum, 6 h after withdrawal
  Tissue distribution and depletion of CYA (means ± SD): 15.5409 ± 2.03867 mg/kg
[2]; Caecum, 1 d after withdrawal
  Tissue distribution and depletion of CYA (means ± SD): 0.56384 ± 0.06558 mg/kg
[2]; Caecum, 3 d after withdrawal
  Tissue distribution and depletion of CYA (means ± SD): 0.02075 ± 0.01112 mg/kg
[2]; Caecum
  t1/2 (elimination half-life): 7.45 h
[2]; Heart, 6 h after withdrawal
  Tissue distribution and depletion of CYA (means ± SD): 1.091 ± 0.1971 mg/kg
[2]; Heart, 1 d after withdrawal
  Tissue distribution and depletion of CYA (means ± SD): 0.66217 ± 0.10149 mg/kg
[2]; Heart, 3 d after withdrawal
  Tissue distribution and depletion of CYA (means ± SD): 0.24376 ± 0.04678 mg/kg
[2]; Heart
  t1/2 (elimination half-life): 31.50 h
[2]; Kidney, 6 h after withdrawal
  Tissue distribution and depletion of CYA (means ± SD): 6.24527 ± 0.67361 mg/kg
[2]; Kidney, 1 d after withdrawal
  Tissue distribution and depletion of CYA (means ± SD): 2.03447 ± 0.34637 mg/kg
[2]; Kidney, 3 d after withdrawal
  Tissue distribution and depletion of CYA (means ± SD): 1.14528 ± 0.11569 mg/kg
[2]; Kidney, 7 d after withdrawal
  Tissue distribution and depletion of CYA (means ± SD): 0.08605 ± 0.04177 mg/kg
[2]; Kidney
  t1/2 (elimination half-life): 28.88 h
[2]; Large Intestine, 6 h after withdrawal
  Tissue distribution and depletion of CYA (means ± SD): 2.32296 ± 0.11341 mg/kg
[2]; Large Intestine, 1 d after withdrawal
  Tissue distribution and depletion of CYA (means ± SD): 0.5581 ± 0.05702 mg/kg
[2]; Large Intestine, 3 d after withdrawal
  Tissue distribution and depletion of CYA (means ± SD): 0.12977 ± 0.0238 mg/kg
[2]; Large Intestine
  t1/2 (elimination half-life): 16.90 h
[2]; Liver, 6 h after withdrawal
  Tissue distribution and depletion of CYA (means ± SD): 5.04944 ± 0.37061 mg/kg
[2]; Liver, 1 d after withdrawal
  Tissue distribution and depletion of CYA (means ± SD): 2.35504 ± 0.25805 mg/kg
[2]; Liver, 3 d after withdrawal
  Tissue distribution and depletion of CYA (means ± SD): 1.4301 ± 0.17539 mg/kg
[2]; Liver, 7 d after withdrawal
  Tissue distribution and depletion of CYA (means ± SD): 0.12635 ± 0.04235 mg/kg
[2]; Liver
  t1/2 (elimination half-life): 33.00 h
[2]; Lung, 6 h after withdrawal
  Tissue distribution and depletion of CYA (means ± SD): 1.88405 ± 0.29415 mg/kg
[2]; Lung, 1 d after withdrawal
  Tissue distribution and depletion of CYA (means ± SD): 1.68108 ± 0.11214 mg/kg
[2]; Lung, 3 d after withdrawal
  Tissue distribution and depletion of CYA (means ± SD): 0.79745 ± 0.09581 mg/kg
[2]; Lung, 7 d after withdrawal
  Tissue distribution and depletion of CYA (means ± SD): 0.04918 ± 0.01852 mg/kg
[2]; Lung
  t1/2 (elimination half-life): 30.13 h
[2]; Muscle, 6 h after withdrawal
  Tissue distribution and depletion of CYA (means ± SD): 0.96902 ± 0.06106 mg/kg
[2]; Muscle, 1 d after withdrawal
  Tissue distribution and depletion of CYA (means ± SD): 0.52982 ± 0.05487 mg/kg
[2]; Ovary, 6 h after withdrawal
  Tissue distribution and depletion of CYA (means ± SD): 2.88421 ± 0.06688 mg/kg
[2]; Ovary, 1 d after withdrawal
  Tissue distribution and depletion of CYA (means ± SD): 0.32655 ± 0.03923 mg/kg
[2]; Ovary, 3 d after withdrawal
  Tissue distribution and depletion of CYA (means ± SD): 0.01887 ± 0.00619 mg/kg
[2]; Ovary
  t1/2 (elimination half-life): 9.63 h
[2]; Skin/Fat, 6 h after withdrawal
  Tissue distribution and depletion of CYA (means ± SD): 1.2996 ± 0.23417 mg/kg
[2]; Skin/Fat, 1 d after withdrawal
  Tissue distribution and depletion of CYA (means ± SD): 1.03596 ± 0.07642 mg/kg
[2]; Skin/Fat, 3 d after withdrawal
  Tissue distribution and depletion of CYA (means ± SD): 0.42024 ± 0.03644 mg/kg
[2]; Skin/Fat, 7 d after withdrawal
  Tissue distribution and depletion of CYA (means ± SD): 0.0253 ± 0.02233 mg/kg
[2]; Small Intestine, 6 h after withdrawal
  Tissue distribution and depletion of CYA (means ± SD): 2.86777 ± 0.1072 mg/kg
[2]; Small Intestine, 1 d after withdrawal
  Tissue distribution and depletion of CYA (means ± SD): 0.46368 ± 0.12091 mg/kg
[2]; Small Intestine, 3 d after withdrawal
  Tissue distribution and depletion of CYA (means ± SD): 0.05785 ± 0.01762 mg/kg
[2]; Small Intestine
  t1/2 (elimination half-life): 12.60 h
[2]; Spleen, 6 h after withdrawal
  Tissue distribution and depletion of CYA (means ± SD): 1.1278 ± 0.08725 mg/kg
[2]; Spleen, 1 d after withdrawal
  Tissue distribution and depletion of CYA (means ± SD): 0.75931 ± 0.04725 mg/kg
[2]; Spleen, 3 d after withdrawal
  Tissue distribution and depletion of CYA (means ± SD): 0.2717 ± 0.05323 mg/kg
[2]; Spleen, 7 d after withdrawal
  Tissue distribution and depletion of CYA (means ± SD): 0.02521 ± 0.04114 mg/kg
[2]; Spleen
  t1/2 (elimination half-life): 30.13 h
[2]; Stomach, 6 h after withdrawal
  Tissue distribution and depletion of CYA (means ± SD): 2.29013 ± 0.61619 mg/kg
[2]; Stomach, 1 d after withdrawal
  Tissue distribution and depletion of CYA (means ± SD): 0.44866 ± 0.04356 mg/kg
[2]; Stomach, 3 d after withdrawal
  Tissue distribution and depletion of CYA (means ± SD): 0.14233 ± 0.00993 mg/kg
[2]; Stomach
  t1/2 (elimination half-life): 18.24 h
[2]; Testicle, 6 h after withdrawal
  Tissue distribution and depletion of CYA (means ± SD): 1.05196 ± 0.00706 mg/kg
[2]; Testicle, 1 d after withdrawal
  Tissue distribution and depletion of CYA (means ± SD): 0.74037 ± 0.07782 mg/kg
[2]; Testicle, 3 d after withdrawal
  Tissue distribution and depletion of CYA (means ± SD): 0.3319 ± 0.05429 mg/kg
[2]; Testicle
  t1/2 (elimination half-life): 40.76 h
[2]; oral 10 mg/kg bw for seven consecutive days
  time of maximum concentrations in all detected organs or tissues: 6 h
